Measurements reported in ChEMBL document CHEMBL1201862, “PubChem BioAssay data set” (2004).
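Growth conditions: 96-well plates. Treatment: test compound, 48 hours, 5 concentrations. Analysis: linear interpolation between bracketing concentrations; unreached endpoints set to highest concentration. GI50: concentration for 50% inhibition of growth.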 The source made the active and inactive calls. No stated cut-off is given here; in the data, active = GI50 up to about 1.1 µM and inactive = higher.

What was measured:
Experiment in all cases: NCI-60 cell line screen, 48 h
786-0 = system: 786-0
A498 = system: A498
A549 = system: A549
ACHN = system: ACHN
BT-549 = system: BT-549
CAKI-1 = system: CAKI-1
CCRF-CEM = system: CCRF-CEM
COLO 205 = system: COLO 205
DU-145 = system: DU-145
EKVX = system: EKVX
HCC 2998 = system: HCC 2998
HCT-116 = system: HCT-116
HCT-15 = system: HCT-15
HL-60 = system: HL-60
HOP-62 = system: HOP-62
HT-29 = system: HT-29
Hs-578T = system: Hs-578T
IGROV-1 = system: IGROV-1
K562 = system: K562
KM12 = system: KM12
LOX IMVI = system: LOX IMVI
M14 = system: M14
MCF7 = system: MCF7
MDA-MB-231 = system: MDA-MB-231
MDA-MB-435 = system: MDA-MB-435
MDA-N = system: MDA-N
MOLT-4 = system: MOLT-4
Malme-3M = system: Malme-3M
NCI-H226 = system: NCI-H226
NCI-H23 = system: NCI-H23
NCI-H460 = system: NCI-H460
NCI-H522 = system: NCI-H522
NCI/ADR-RES = system: NCI/ADR-RES
OVCAR-3 = system: OVCAR-3
OVCAR-4 = system: OVCAR-4
OVCAR-5 = system: OVCAR-5
OVCAR-8 = system: OVCAR-8
PC-3 = system: PC-3
RPMI-8226 = system: RPMI-8226
RXF 393 = system: RXF 393
SF-268 = system: SF-268
SF-295 = system: SF-295
SF-539 = system: SF-539
SK-MEL-28 = system: SK-MEL-28
SK-MEL-2 = system: SK-MEL-2
SK-MEL-5 = system: SK-MEL-5
SK-OV-3 = system: SK-OV-3
SN12C = system: SN12C
SNB-19 = system: SNB-19
SNB-75 = system: SNB-75
SR = system: SR
SW-620 = system: SW-620
T47D = system: T47D
TK-10 = system: TK-10
U-251 = system: U-251
UACC-257 = system: UACC-257
UACC-62 = system: UACC-62
HOP-92 = system: HOP-92
UO-31 = system: UO-31

CCOc1c(OC)cc(-c2nc3n(n2)C(=O)C(CC)S3)cc1OC (centres undefined)
GI50 (786-0): > 10 µM (inactive) | GI50 (A498): > 10 µM (inactive) | GI50 (A549): > 10 µM (inactive) | GI50 (ACHN): > 10 µM (inactive) | GI50 (BT-549): > 10 µM (inactive) | GI50 (CAKI-1): > 10 µM (inactive) | GI50 (CCRF-CEM): > 10 µM (inactive) | GI50 (COLO 205): > 10 µM (inactive) | GI50 (DU-145): > 10 µM (inactive) | GI50 (EKVX): > 10 µM (inactive) | GI50 (HCC 2998): > 10 µM (inactive) | GI50 (HCT-116): > 10 µM (inactive) | GI50 (HCT-15): > 10 µM | GI50 (HL-60): > 10 µM (inactive) | GI50 (HOP-62): > 10 µM (inactive) | GI50 (HT-29): > 10 µM (inactive) | GI50 (Hs-578T): > 10 µM (inactive) | GI50 (IGROV-1): > 10 µM (inactive) | GI50 (K562): > 10 µM (inactive) | GI50 (KM12): > 10 µM (inactive) | GI50 (LOX IMVI): > 10 µM (inactive) | GI50 (M14): > 10 µM (inactive) | GI50 (MCF7): > 10 µM (inactive) | GI50 (MDA-MB-231): > 10 µM (inactive) | GI50 (MDA-MB-435): > 10 µM (inactive) | GI50 (MDA-N): > 10 µM (inactive) | GI50 (MOLT-4): > 10 µM (inactive) | GI50 (Malme-3M): > 10 µM (inactive) | GI50 (NCI-H226): > 10 µM (inactive) | GI50 (NCI-H23): > 10 µM (inactive) | GI50 (NCI-H460): > 10 µM (inactive) | GI50 (NCI-H522): > 10 µM (inactive) | GI50 (NCI/ADR-RES): > 10 µM (inactive) | GI50 (OVCAR-3): > 10 µM (inactive) | GI50 (OVCAR-4): > 10 µM (inactive) | GI50 (OVCAR-5): > 10 µM (inactive) | GI50 (OVCAR-8): > 10 µM (inactive) | GI50 (PC-3): > 10 µM (inactive) | GI50 (RPMI-8226): > 10 µM (inactive) | GI50 (RXF 393): > 10 µM (inactive) | GI50 (SF-268): > 10 µM (inactive) | GI50 (SF-295): > 10 µM (inactive) | GI50 (SF-539): > 10 µM (inactive) | GI50 (SK-MEL-28): > 10 µM (inactive) | GI50 (SK-MEL-2): > 10 µM (inactive) | GI50 (SK-MEL-5): > 10 µM (inactive) | GI50 (SK-OV-3): > 10 µM (inactive) | GI50 (SN12C): > 10 µM (inactive) | GI50 (SNB-19): > 10 µM (inactive) | GI50 (SNB-75): > 10 µM (inactive) | GI50 (SR): > 10 µM (inactive) | GI50 (SW-620): > 10 µM (inactive) | GI50 (T47D): > 10 µM (inactive) | GI50 (TK-10): > 10 µM (inactive) | GI50 (U-251): > 10 µM (inactive) | GI50 (UACC-257): > 10 µM (inactive) | GI50 (UACC-62): > 10 µM (inactive)

CC(=O)O[C@H]1C(=O)[C@@]2(C)[C@H]([C@H](OC(=O)c3ccccc3)[C@@]3(O)C[C@H](O)C(C)=C1C3(C)C)[C@]1(OC(C)=O)CO[C@@H]1C[C@@H]2O
GI50 (786-0): 51.5 µM (inactive) | GI50 (A549): 73.3 µM (inactive) | GI50 (ACHN): > 100 µM (inactive) | GI50 (BT-549): 32.4 µM (inactive) | GI50 (CAKI-1): > 100 µM (inactive) | GI50 (CCRF-CEM): 46.2 µM (inactive) | GI50 (COLO 205): 26.5 µM (inactive) | GI50 (DU-145): 34.7 µM (inactive) | GI50 (EKVX): > 100 µM (inactive) | GI50 (HCT-116): 30.5 µM (inactive) | GI50 (HCT-15): 53.3 µM | GI50 (HL-60): 61.9 µM (inactive) | GI50 (HOP-62): 54 µM (inactive) | GI50 (HOP-92): > 100 µM (inactive) | GI50 (HT-29): 23.3 µM (inactive) | GI50 (Hs-578T): 19 µM (inactive) | GI50 (IGROV-1): 19.5 µM (inactive) | GI50 (K562): 55.8 µM (inactive) | GI50 (KM12): 15.2 µM (inactive) | GI50 (LOX IMVI): 45.3 µM (inactive) | GI50 (M14): 28.6 µM (inactive) | GI50 (MCF7): 30.4 µM (inactive) | GI50 (MDA-MB-231): 45.1 µM (inactive) | GI50 (MDA-MB-435): 11.9 µM (inactive) | GI50 (MDA-N): 4.55 µM (inactive) | GI50 (MOLT-4): 73.3 µM (inactive) | GI50 (Malme-3M): > 100 µM (inactive) | GI50 (NCI-H226): 86.5 µM (inactive) | GI50 (NCI-H23): 39.1 µM (inactive) | GI50 (NCI-H460): 24.2 µM (inactive) | GI50 (NCI-H522): 17 µM (inactive) | GI50 (NCI/ADR-RES): > 100 µM (inactive) | GI50 (OVCAR-3): 22.2 µM (inactive) | GI50 (OVCAR-4): > 100 µM (inactive) | GI50 (OVCAR-5): 63.5 µM (inactive) | GI50 (OVCAR-8): 31.2 µM (inactive) | GI50 (PC-3): 28 µM (inactive) | GI50 (RPMI-8226): 13.7 µM (inactive) | GI50 (RXF 393): 37.1 µM (inactive) | GI50 (SF-268): 83.4 µM (inactive) | GI50 (SF-295): 37.5 µM (inactive) | GI50 (SF-539): 32.1 µM (inactive) | GI50 (SK-MEL-28): 64.9 µM (inactive) | GI50 (SK-MEL-2): 46.9 µM (inactive) | GI50 (SK-MEL-5): 35.8 µM (inactive) | GI50 (SK-OV-3): 22.7 µM (inactive) | GI50 (SN12C): 49.4 µM (inactive) | GI50 (SNB-19): 69.3 µM (inactive) | GI50 (SNB-75): 11.2 µM (inactive) | GI50 (SR): 12.9 µM (inactive) | GI50 (SW-620): 14.6 µM (inactive) | GI50 (T47D): > 100 µM (inactive) | GI50 (TK-10): 83.2 µM (inactive) | GI50 (U-251): 45.9 µM (inactive) | GI50 (UACC-257): 83.6 µM (inactive) | GI50 (UACC-62): 36 µM (inactive) | GI50 (UO-31): 82 µM (inactive)
